Test results from patent US6987103B2, “Treatment of chronic myelogenous leukmia, resistant or intolerant to ST1571, involving homoharringtonine alone or combined with other agents” (Stragen Pharma S.A., priority 2001, dated 2006).

Columns and labels:
[1] = test system: chronic phase of Philadelphia positive chronic myelogenous leukemia; test: Case of patient #15 successively resistant to five drugs including STI571, treated by homoharringtonine; assay type: in vivo, human
LAMA84-s = test: MTS cell proliferation assay, median effect combination analysis with STI571; assay type: cell-based, human; conditions: STI571:HHT = 27.3:1
From the text: (§1) The combination ratios are selected, where possible, such that both drugs are in a range relevant to their achievable serum concentrations. STI571-sensitive and resistant cells are exposed to doubling dilutions of homoharringtonine over a wide range (Table 1). […] The effects of homoharringtonine treatments are plotted and analyzed to produce computed estimations of the relative responses to either homoharringtonine alone or in combination. In this way it is possible to detect synergistic, additive or antagonistic effects. Duplicate or triplicate independent experiments are set up for each cell line/drug combination. In each case the analysis generates plots of CI (Combination Index) versus effect. […] These values are most relevant at high effect levels, as this is the desired physiological level of effect. Subsequently the CI curves can be represented as the average CI values at effects 0.5, 0.75 and 0.9 (IC50, IC75 and IC90 respectively). Cell proliferation is monitored with the CellTiter 96® AQucous One Solution Cell Proliferation Assay (Promega, UK). […] Proliferation is assessed on aliquots taken daily from days 1 to 4 in order to establish the most representative time-point. Replicate experiments are thereafter set up by plating the cells directly into 96-well plates and staining with MTS on day 3. A minimum of 95% viability as assessed by Trypan blue staining is required for the initiation of any experiment. […] Blank wells contained 100 μL RF10. All samples are plated in quadruplicate. […] On day 3, 20 μL of MTS reagent is added to each well, and the plate is re-incubated for a further 3–4 hours for stain development. At the end of this period, the plates are gently agitated and the absorbance of each well at 490 nm is recorded on an automatic microplate reader (MRX, Dynatech, Billingshurst, UK). Averaged blank values (no cells, no drug) are subtracted from sample values, and these corrected A490 values are calculated as percentages of the control cultures grown in the absence of drug. Error bars indicate the range defined in duplicate experiments, and significant differences considered as those which fell outside the region of overlap in the ranges of the means. Such an approach is supported by the non-parametric Mann-Whitney U test.

K562-s = test: as above; assay type: cell-based, human; conditions: STI571:HHT = 27.3:1
From the text: as §1

K562-r = test: as above; assay type: cell-based, human; conditions: K562-r (STI571-resistant); STI571:HHT = 27.3:1
From the text: as §1

LAMA84-r = test: as above; assay type: cell-based, human; conditions: LAMA84-r (STI571-resistant); STI571:HHT = 27.3:1
From the text: as §1

[2] = in vivo; cited from earlier work
[3] = test system: accelerated phase chronic myelogenous leukemia; conditions: human, in vivo
Description: Description. […] The patient was resistant to interferon alpha, BCNU, HU at the time of initiation of induction with homoharringtonine (2.5 mg/m^2/day, 15 days). After white blood cell and platelet counts recovery, ten further 7-day cycles of homoharringtonine combined with cytarabine (Ara-C) 10 mg (flat dose) daily, were administered. An average of 7 days of daily Ara-C per 28-day cycle was used (see treatment plan of FIG. 1).

[4] = test system: Chronic myelogenous leukemia (CML); conditions: in vivo; cited from earlier work

For `COC(=O)[C@H](CCSC)NC(=O)c1ccc(NC[C@@H](N)CS)cc1-c1ccccc1` [farnesyl transferase inhibitor], the peripheral blood response ([1]; patient #15, after first relapse under interferon alpha) was “transient peripheral blood response”.

In the case of `COC(=O)C[C@](O)(CCCC(C)(C)O)C(=O)O[C@@H]1C(OC)=C[C@]23CCCN2CCc2cc4c(cc2[C@H]13)OCO4` [homoharringtonine], the “Average CI (Combination index) at FA values of 0.5, 0.75 and 0.9” value (“Average CI (Combination index)” below) (LAMA84-s) is reported as 1.2, the “Average CI (Combination index)” value (K562-s) is reported as 1.1 and the “Average CI (Combination index)” value (K562-r) is reported as 0.6. For the same compound, the “Average CI (Combination index)” value (LAMA84-r) was 0.6, the WBC count ([1]; patient #15, day 17, HHT 2.5 mg/m^2/day, 14 days, 31,000/μL at initiation) was 2,400 /μL and the “Drug concentration in serum” value [2] was 0.0366 µM. The “adverse events attributable to the agent” value [3] was “no non-hematologic adverse events attributable to homoharringtonine”.

In the case of interferon alpha, the median survival [4] is listed as “about 7 years”.

For `Nc1ccn([C@@H]2O[C@H](CO)[C@@H](O)[C@@H]2O)c(=O)n1` [cytarabine], the “adverse events attributable to the agent” value [3] was “Mouth ulceration and alveolar hemorrhage”.
